Data: patent US6534048B1, “Topical clonidine preparation” (Curatek Pharmaceuticals Holding, Inc., priority 1999, dated 2003)

What was measured:
[1] = test system: patients with postherpetic neuralgia; conditions: cited from earlier work

For `Clc1cccc(Cl)c1NC1=NCCN1` [clonidine, N-(2,6-dichlorophenyl)-4,5-dihydro-1H-imidazol-2-amine], the side effects ([1]; single oral 0.2 mg, at the time of peak clonidine levels) is listed as “troublesome levels of sedation and dizziness”, the pain relief ([1]; single oral doses of 0.2 mg, 40 patients) is listed as “greater than that produced by doses of placebo or 120 mg codeine” and the side effects (eight volunteers, 3 mg or 6 mg per day for 14 consecutive days) is listed as “no side effects were observed”. The mean plasma concentrations (topical daily doses of 3 mg and 6 mg clonidine) was “not more than 0.2 nanograms/ml”.
